Source: ChEMBL document CHEMBL1201862, “PubChem BioAssay data set” (2004)
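Assay format: 96-well plates, 48-hour exposure. GI50 marks 50% less growth.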 Active and inactive are the calls of the source. No stated cut-off is given here; in the data, active = GI50 up to about 1.1 µM and inactive = higher.

Legend:
Experiment in all cases: NCI-60 cell line screen, 48 h
[1] = system: 786-0
[2] = system: A498
[3] = system: CCRF-CEM
[4] = system: HOP-62
[5] = system: HT-29
[6] = system: NCI-H226
[7] = system: OVCAR-5
[8] = system: RXF 393
[9] = system: SF-268
[10] = system: SF-539
[11] = system: SK-MEL-28
[12] = system: SR
[13] = system: TK-10
[14] = system: U-251
[15] = system: IGROV-1
[16] = system: OVCAR-3

Measured: GI50

Cc1cc(C)c(C(=O)O)c(SSc2cc(C)cc(C)c2C(=O)O)c1
inactive: [1] > 100 µM | [2] > 100 µM | [3] 57.7 µM | [4] > 100 µM | [5] > 100 µM | [6] > 100 µM | [7] > 100 µM | [8] > 100 µM | [9] > 100 µM | [10] > 100 µM | [11] > 100 µM | [12] > 100 µM | [13] > 100 µM | [14] > 100 µM

O=C(CC1S/C(=N\c2ccccc2Cl)NC1=O)Nc1ccc(Cl)cc1 (stereo not given)
inactive: [1] > 100 µM | [2] > 100 µM | [3] > 100 µM | [4] > 100 µM | [5] 64 µM | [15] > 100 µM | [7] > 100 µM | [8] > 100 µM | [9] > 100 µM | [10] > 100 µM | [11] > 100 µM | [12] 31.3 µM | [13] > 100 µM | [14] > 100 µM

COC(=O)C1CC(=O)CCC1c1ccccc1 (stereo not given)
inactive: [1] > 100 µM | [2] > 100 µM | [3] > 100 µM | [4] > 100 µM | [5] > 100 µM | [15] > 100 µM | [6] > 100 µM | [16] > 100 µM | [7] > 100 µM | [9] > 100 µM | [10] > 100 µM | [11] > 100 µM | [12] > 100 µM | [13] > 100 µM | [14] > 100 µM

CN(C)CCS/C(=N\c1ccccc1)n1cccc1
inactive: [1] > 100 µM | [3] 57.7 µM | [4] 25.7 µM | [5] 41.5 µM | [15] > 100 µM | [6] 22.3 µM | [16] > 100 µM | [7] > 100 µM | [8] 27.1 µM | [9] 32.4 µM | [10] 66.5 µM | [11] > 100 µM | [12] 33.2 µM | [13] > 100 µM | [14] > 100 µM

O=C(NCCCCCCNC(=O)NC1OCC(O)C(O)C1O)NC1OCC(O)C(O)C1O (stereo not given)
inactive: [1] > 100 µM | [3] > 100 µM | [4] > 100 µM | [5] > 100 µM | [15] > 100 µM | [6] > 100 µM | [16] > 100 µM | [7] > 100 µM | [8] > 100 µM | [9] > 100 µM | [10] > 100 µM | [11] > 100 µM | [12] > 100 µM | [13] > 100 µM | [14] > 100 µM

O=C(CC(=O)C(=O)Nc1ccccc1)CC(c1ccccc1)c1c(O)c2ccccc2oc1=O (stereo not given)
inactive: [1] > 100 µM | [2] > 100 µM | [3] > 100 µM | [5] > 100 µM | [15] > 100 µM | [6] > 100 µM | [16] > 100 µM | [7] > 100 µM | [8] > 100 µM | [9] > 100 µM | [10] > 100 µM | [11] > 100 µM | [13] > 100 µM

C/C(CN1C(=O)c2ccccc2C1=O)=N\NS(=O)(=O)c1cccc(C(=O)O)c1
inactive: [1] > 100 µM | [2] > 100 µM | [3] > 100 µM | [4] > 100 µM | [5] > 100 µM | [15] > 100 µM | [6] > 100 µM | [16] > 100 µM | [7] > 100 µM | [9] > 100 µM | [10] > 100 µM | [11] > 100 µM | [12] > 100 µM | [13] > 100 µM | [14] > 100 µM

CC(C)c1cc(C(C)C)c(S(=O)(=O)NN)c(C(C)C)c1
inactive: [1] > 100 µM | [2] > 100 µM | [4] > 100 µM | [5] > 100 µM | [15] > 100 µM | [16] > 100 µM | [7] > 100 µM | [8] > 100 µM | [9] > 100 µM | [10] > 100 µM | [11] > 100 µM | [12] > 100 µM | [13] > 100 µM | [14] > 100 µM

COc1nc(NC2OC(COC(C)=O)C(OC(C)=O)C(OC(C)=O)C2OC(C)=O)c(/N=C/C=N/c2c(NC3OC(COC(C)=O)C(OC(C)=O)C(OC(C)=O)C3OC(C)=O)nc(OC)[nH]c2=O)c(=O)[nH]1 (stereo not given)
inactive: [1] > 100 µM | [2] > 100 µM | [3] > 100 µM | [4] > 100 µM | [5] > 100 µM | [15] > 100 µM | [6] > 100 µM | [16] > 100 µM | [7] > 100 µM | [9] > 100 µM | [10] > 100 µM | [11] > 100 µM | [13] > 100 µM | [14] > 100 µM

N#Cc1ccc(Sc2nc3ccccc3[nH]2)cc1
inactive: [1] > 100 µM | [3] > 100 µM | [4] > 100 µM | [5] > 100 µM | [15] 86.7 µM | [6] 36.6 µM | [7] 42.8 µM | [8] > 100 µM | [9] > 100 µM | [10] > 100 µM | [11] > 100 µM | [12] > 100 µM | [13] > 100 µM | [14] > 100 µM

COC(=O)[C@@H]1CCCCC[C@H]2C(CO)=C(C)C(=O)C12 (stereo not given in full)
inactive: [1] > 100 µM | [2] > 100 µM | [3] > 100 µM | [4] > 100 µM | [5] > 100 µM | [15] > 100 µM | [6] 99.1 µM | [7] > 100 µM | [8] > 100 µM | [9] > 100 µM | [10] > 100 µM | [11] > 100 µM | [12] > 100 µM | [13] > 100 µM | [14] > 100 µM

Cc1cc(C)nc(NS(=O)(=O)c2ccc(NC(=O)c3ccc(Cl)c4c(Nc5ccc(S(=O)(=O)Nc6cc(C)on6)cc5)c5ccccc5nc34)cc2)n1
inactive: [1] 17 µM | [2] 15.3 µM | [4] 16.3 µM | [5] 19.5 µM | [15] 20.1 µM | [6] 17.5 µM | [16] 16.6 µM | [7] 21 µM | [8] 14.3 µM | [9] 15 µM | [10] 18.7 µM | [11] 18.4 µM | [13] 18.3 µM | [14] 15.3 µM

CC(=O)NNc1nc(C)c(C(=O)NNC(=O)C(=O)Nc2c(Cl)cc([N+](=O)[O-])cc2Cl)s1
inactive: [1] 33 µM | [2] 21.6 µM | [3] 31.8 µM | [4] 56.6 µM | [5] 37.8 µM | [15] 49.3 µM | [6] 24 µM | [16] 21 µM | [7] 27.2 µM | [9] 29.7 µM | [10] 24.2 µM | [11] 26.4 µM | [12] 30.5 µM | [13] 41.4 µM | [14] > 100 µM

CCc1cccc(C(C)C)c1NC(=O)C(=O)CC(=O)c1c(C)[n+]([O-])c2ccccc2[n+]1[O-]
inactive: [1] > 100 µM | [2] > 100 µM | [3] > 100 µM | [4] > 100 µM | [15] > 100 µM | [6] > 100 µM | [7] > 100 µM | [8] > 100 µM | [9] > 100 µM | [10] > 100 µM | [11] > 100 µM | [13] > 100 µM | [14] > 100 µM

O=C1C[C@@H]2[C@@H](C=CC23CC3)N1O
inactive: [1] > 100 µM | [2] > 100 µM | [3] > 100 µM | [4] > 100 µM | [5] > 100 µM | [15] > 100 µM | [6] > 100 µM | [7] > 100 µM | [8] > 100 µM | [9] > 100 µM | [10] > 100 µM | [11] > 100 µM | [13] > 100 µM | [14] > 100 µM

O=c1[nH]c(=O)n(C2CC(O)C(CO)O2)cc1OS(=O)(=O)C(F)(F)F (stereo not given)
inactive: [1] > 100 µM | [2] > 100 µM | [3] > 100 µM | [4] > 100 µM | [5] > 100 µM | [15] > 100 µM | [6] > 100 µM | [16] > 100 µM | [7] > 100 µM | [8] > 100 µM | [9] > 100 µM | [10] > 100 µM | [11] > 100 µM | [13] > 100 µM | [14] > 100 µM

C=C1C(OC(=O)/C=C/c2ccccc2)CC(OC(C)=O)C2(C)C1CC1CC(OC(C)=O)C(C)=C(C(OC(C)=O)C2OC(C)=O)C1(C)C (stereo not given)
inactive: [1] > 100 µM | [2] 31.6 µM | [3] 5.25 µM | [4] > 100 µM | [5] > 100 µM | [15] > 100 µM | [6] > 100 µM | [7] > 100 µM | [9] > 100 µM | [10] > 100 µM | [12] 3.97 µM | [13] > 100 µM | [14] > 100 µM

NCCCNCCCCN(CCCN)/[N+]([O-])=N\O
inactive: [1] > 100 µM | [3] > 100 µM | [4] > 100 µM | [5] > 100 µM | [15] > 100 µM | [6] > 100 µM | [16] > 100 µM | [7] > 100 µM | [8] > 100 µM | [9] > 100 µM | [10] > 100 µM | [11] > 100 µM | [12] 28.6 µM
